Reference: patent US20060206946A1, “Method of disrupting heme transport in nematodes and of modelling and evaluating eukaryotic heme transport” (priority 2005, published 2006)

Columns and labels:
[1] = test system: C. elegans genes transcriptionally regulated by heme; experiment: Affymetrix C. elegans Genome Array: genes transcriptionally regulated by heme (4 and 500 μM vs 20 μM hemin); type: in vivo, Caenorhabditis elegans; details: low heme (4 μM)
Protocol: Worms were grown at 4 μM (low) 20 μM (optimal) and 500 μM (high) hemin in axenic CeHR medium. We chose 4 and 500 μM hemin because these heme concentrations were at either end of the worm growth spectrum, and worms at these heme concentrations show a ˜24 h growth delay compared to worms grown at 20 μM hemin. […] In order to eliminate maternal effect genes, wild-type N2 worms were grown for two synchronized generations in their respective hemin concentrations to obtain F2 worms at the […] as determined by morphological analysis of the vulva. F2 worms from all three heme conditions were harvested at the same mid-L4 stage for final RNA extraction. The RNA was extracted with Trizol and treated with RNase-free DNase to remove any contaminating DNA followed by a purification on a Qiagen RNeasy column. Each experiment was performed four independent times on four separate days to ensure proper sampling and to account for experimental variations. […]
From these genes, 58 genes were excluded because they were specific to germline, sperm or oocyte development, as determined by cross-checking with publicly available microarray databases. […]
The initial statistical analysis of the Affymetrix genome array was performed at the NIDDK microarray facility using Affymetrix MAS 5.0 Suite software. […] The standard error for ΔΔCt will be calculated by the method of Livak and Schmittgen. […]

C. elegans mutant IH718 = experiment: Growth of heme resistant mutant in CeHR medium; type: in vivo, Caenorhabditis elegans; parameters: key: + = wild type equivalent In growth; ND: No growth
Protocol: To further increase the stringency of our genetic screen we split the contents from each 800 μM hemin selection flasks into two flasks containing either 800 μM or 1000 μM hemin. This allowed us to use another tier of positive selection to identify mutants with greater resistance to heme toxicity. Mutants from each flask were isolated and treated as a separate entity by giving an identification number based on the Genetic Nomenclature Guidelines used for C. elegans (http://biosci.umn.edu/CGC/Nomenclature/nomenguid.htm). To eliminate EMS-induced spurious mutations that could result in false positive, the mutants were outcrossed to wild-type N2 males. After five outcrosses, which replaces ˜97% of the mutant genome, mutants that bred true were selected for further analysis. Using this procedure, we isolated 13 individual mutants that were resistant to heme toxicity. […]
Worm Culture and Growth Assays. […] Worm growth was monitored each day and an aliquot was obtained for counting by microscopy usually at days 3, 6, and 9. The worms in each well were counted twice and each growth condition was analyzed in triplicate. P values for statistical significance were calculated utilizing a one-way ANOVA with Student-Newman-Keuls multiple comparison test using GraphPad Instat version 3.01. […]

For hemin chloride, the “upregulation of R02E12.6 in microarrays” value [1] was 16 fold and the “Growth 1.6 μM hemin” value (C. elegans mutant IH718) was “+”.
